Data on four compounds can be found in PMC6127852 (Journal of Enzyme Inhibition and Medicinal Chemistry, 2018).

Molecules are shown by their SMILES. Values after ≈ are worked out from the molar mass of the structure shown.

For test [1], the system named is polyA-polyU (RNA, polymer) A/U. Kind of test: UV-Vis titration, Scatchard. Conditions: PBS, pH 7; changes too small for accurate calculation; compound 14.8 µM.
For test [2], the system named is polyG-polyC (polyC-polyG) (RNA, polymer) G/C. Kind of test: UV-Vis titration, Scatchard. Conditions: PBS, I = 0.05 M (Table 1 says I = 0.015 M), cations not specified, I = 0.015 M (Methods: 0.05 M), pH 7, per base.
Test [3] relates to S. aureus MRSA. Kind of test: Broth microdilution MIC, MRSA clinical strain. Type of test: cell-based. Conditions: Staphylococcus aureus, antibiotic-resistant clinical strain. On the procedure:
(§1) The compounds were evaluated for their in vitro anti-bacterial activity against Gram-positive bacteria: S. aureus (ATCC 25923), MRSA, methicillin-sensitive S. aureus (MSSA), E. faecalis, vancomycin-resistant E. faecium (VREF), and Gram-negative bacteria: E. coli (ATCC 25925), P. aeruginosa (ATCC 27853), A. baumannii (ATCC 19606) and ESBL-producing K. pneumoniae (ATCC 27736). Standard broth microdilution method as recommended in guidelines of Clinical and Laboratory Standards Institute[61] ^, [65] ^, [66] was applied and the minimum inhibitory concentration (MIC) of compounds was tested. In short, testing was performed in U-bottomed 96-well sterile plastic microdilution trays (Falcon 3077, Becton Dickinson Labware, Franklin Lakes, NJ) in cation (Ca^2+ and Mg^2+) adjusted Mueller–Hinton broth medium (Becton Dickinson and Co., Cockeysville, MD). All testings were performed in triplicate.
Background: Dilution methods test growth across graded concentrations, often in twofold steps.

Test [4] concerns S. aureus MSSA. Kind of test: Broth microdilution MIC, MSSA clinical strain. Type of test: cell-based. The note with it: Staphylococcus aureus. On the procedure:
as §1

In test [5] the test system is E. faecium VRE. Put plainly: Broth microdilution MIC, VRE clinical strain. Conditions: Enterococcus faecium. In kind it is cell-based. Here is the method: as §1
Test [6] has as its system S. aureus ATCC 25923. Kind of test: Broth microdilution MIC, S. aureus ATCC 25923. Type of test: cell-based. The note with it: Staphylococcus aureus, ATCC25923; Table S2. Here is the method:
as §1
(§2) The in vitro anti-bacterial activity of 5-amidinobenzimidazoles 7a–7e, 8a–8e, and 9a–9e was tested against Gram-positive bacteria including S. aureus (ATCC 25923), Enterococcus faecalis (ATCC 29212), and Gram-negative bacteria including E. coli (ATCC 25925), K. pneumoniae (ATCC 700803), P. aeruginosa (ATCC 27853), and Acinetobacter baumannii (ATCC 19606).

Test [7] has as its system E. faecalis ATCC 29212. Put plainly: Broth microdilution MIC, E. faecalis ATCC 29212. Type of test: cell-based. Conditions: Enterococcus faecalis, ATCC29212; Table S2. Here is the method: as §1, §2
Test [8] deals with E. coli ATCC 25925. Put plainly: Broth microdilution MIC, E. coli ATCC 25925. The note with it: Escherichia coli, ATCC25925; Table S2. In kind it is cell-based. Here is the method:
as §1, §2

Test [9] relates to K. pneumonia ATCC 700803. Kind of test: Broth microdilution MIC, K. pneumoniae ATCC 700803. In kind it is cell-based. The note with it: Klebsiella pneumoniae, ATCC700803; Table S2. On the procedure:
as §1, §2

Test [10] has as its system P. aeruginosa ATCC 27853. Kind of test: Broth microdilution MIC, P. aeruginosa ATCC 27853. In kind it is cell-based. Conditions: Pseudomonas aeruginosa, ATCC27853; Table S2. On the procedure:
as §1, §2

Test [11] relates to A. baumannii ATCC 19606. Put plainly: Broth microdilution MIC, A. baumannii ATCC 19606. In kind it is cell-based. The note with it: Acinetobacter baumannii, ATCC19606; Table S2. On the procedure: as §1, §2

Consider `COc1ccc(-n2cc(COc3ccc(-c4nc5ccc(C(=N)N)cc5[nH]4)cc3)nn2)cc1`, for which the binding result in test [1] is recorded as “weak”. The “log Ks” value in [2] stood at 6.27.

For `CC1(C)S[C@@H]2[C@H](NC(=O)[C@H](N)c3ccccc3)C(=O)N2[C@H]1C(=O)O` [Ampicillin, ampicillin, reference compound], the MIC in [3] is 4 µg/mL (≈ 11.4 µM); in [4], 1 µg/mL (≈ 2.86 µM); in test [5], 1 µg/mL (≈ 2.86 µM); in test [6], 1 µg/mL (≈ 2.86 µM); in [7], 2 µg/mL (≈ 5.72 µM).

With `O=C(O)c1cn(C2CC2)c2cc(N3CCNCC3)c(F)cc2c1=O` [Ciprofloxacin, ciprofloxacin, reference compound], the MIC was determined as 0.004 µg/mL (≈ 0.0121 µM) in test [8], 0.06 µg/mL (≈ 0.181 µM) in test [9], 0.5 µg/mL (≈ 1.51 µM) in test [10] and 0.06 µg/mL (≈ 0.181 µM) in test [11].

As to `CNC(C)C1CCC(N)C(OC2C(N)CC(N)C(OC3OCC(C)(O)C(NC)C3O)C2O)O1` (stereo not shown) [Gentamicin, gentamicin, reference compound], the MIC in test [3] was 0.25 µg/mL (≈ 0.523 µM); in [4], 0.125 µg/mL (≈ 0.262 µM); in test [5], 0.25 µg/mL (≈ 0.523 µM); in test [6], 0.125 µg/mL (≈ 0.262 µM); in test [7] it was 8 µg/mL (≈ 16.8 µM).

As usually defined, the MIC is the lowest concentration found to suppress growth. Read a low MIC as greater potency.
